Experimental data reported in patent US11236025B2, “Methods for improving control of insects and related compositions” (Syngenta Participations AG, priority 2013, dated 2022).
Where two headings read alike, the source gives them in different places.

What was measured:
[1] = system: Diabrotica balteata larvae; assay: Control of rootworm: greenhouse tray test on maize, soil application, larval mortality; assay type: in vivo; settings: 168 h, infested 7 days after application, read-out: Corr. Mortality (%) 5 DAI
Method: (§1) Plastic trays (13×18×11.5 cm) with 4 holes in the bottom were filled with a filter paper and 400 mL Drench soil. 8 maize seeds (2 rows with 4 seeds each) were placed on the soil. Compound solution was applied with a track-sprayer at 200 L/ha. After drying seeds were covered with 200 mL untreated Drench soil and evened. Trays were incubated in a greenhouse chamber (25° C., 50% r.h., 14 h light (>20,000 lux)) and watered daily. 7 days after application each tray was infested with 10 (3 replicates) Diabrotica balteata larvae. After infestation all trays were covered with a plastic lid, which was perforated with 6-9 holes for ventilation. 5 days after infestation the survived larvae were counted. Also assessed was the larval growth (size difference between compound replicates and control). TEFL=Tefluthrin.

Agrotis ipsilon larvae = assay: Control of cutworm: greenhouse tray test on maize, soil application, larval mortality; assay type: in vivo; settings: 168 h, infested 7 days after application, read-out: Corr. Mortality (%) 5 DAI
Method: as §1, with “(>20′000” for “(>20,000”, “5 (6” for “10 (3”, “Agrotis ipsilon” for “Diabrotica balteata”

[2] = w/15% Nachurs 6-24-6, 25 ppm AI
[3] = w/15% Nachurs 6-24-6, 100 ppm AI
[4] = w/30% Nachurs 6-24-6, 25 ppm AI
[5] = w/30% Nachurs 6-24-6, 100 ppm AI

Cc1c(F)c(F)c(COC(=O)[C@@H]2[C@H](/C=C(\Cl)C(F)(F)F)C2(C)C)c(F)c1F (racemic) [TEFL, Tefluthrin]
mortality at 25 ppm ([1]; no fertilizer, 25 ppm AI): 0% | mortality at 50 ppm ([1]; no fertilizer, 50 ppm AI): 0% | mortality at 100 ppm ([1]; no fertilizer, 100 ppm AI): 18% | mortality at 200 ppm ([1]; no fertilizer, 200 ppm AI): 86% | mortality at 400 ppm ([1]; no fertilizer, 400 ppm AI): 100% | mortality at 25 ppm [1, 2]: 4% | mortality at 50 ppm ([1]; w/15% Nachurs 6-24-6, 50 ppm AI): 14% | mortality at 100 ppm [1, 3]: 71% | mortality at 200 ppm ([1]; w/15% Nachurs 6-24-6, 200 ppm AI): 100% | mortality at 400 ppm ([1]; w/15% Nachurs 6-24-6, 400 ppm AI): 96% | mortality at 25 ppm [1, 4]: 4% | mortality at 50 ppm ([1]; w/30% Nachurs 6-24-6, 50 ppm AI): 11% | mortality at 100 ppm [1, 5]: 86% | mortality at 200 ppm ([1]; w/30% Nachurs 6-24-6, 200 ppm AI): 96% | mortality at 400 ppm ([1]; w/30% Nachurs 6-24-6, 400 ppm AI): 100% | mortality at 25 ppm (Agrotis ipsilon larvae; no fertilizer, 25 ppm AI): 38% | mortality at 100 ppm (Agrotis ipsilon larvae; no fertilizer, 100 ppm AI): 25% | mortality at 250 ppm (Agrotis ipsilon larvae; no fertilizer, 250 ppm AI): 71% | mortality at 500 ppm (Agrotis ipsilon larvae; no fertilizer, 500 ppm AI): 92% | mortality at 1000 ppm (Agrotis ipsilon larvae; no fertilizer, 1000 ppm AI): 100% | mortality at 25 ppm (Agrotis ipsilon larvae; [2]): 31% | mortality at 100 ppm (Agrotis ipsilon larvae; [3]): 29% | mortality at 250 ppm (Agrotis ipsilon larvae; w/15% Nachurs 6-24-6, 250 ppm AI): 79% | mortality at 500 ppm (Agrotis ipsilon larvae; w/15% Nachurs 6-24-6, 500 ppm AI): 100% | mortality at 1000 ppm (Agrotis ipsilon larvae; w/15% Nachurs 6-24-6, 1000 ppm AI): 100% | mortality at 25 ppm (Agrotis ipsilon larvae; [4]): 25% | mortality at 100 ppm (Agrotis ipsilon larvae; [5]): 29% | mortality at 250 ppm (Agrotis ipsilon larvae; w/30% Nachurs 6-24-6, 250 ppm AI): 79% | mortality at 500 ppm (Agrotis ipsilon larvae; w/30% Nachurs 6-24-6, 500 ppm AI): 96% | mortality at 1000 ppm (Agrotis ipsilon larvae; w/30% Nachurs 6-24-6, 1000 ppm AI): 100%
